# Results reported in ChEMBL document CHEMBL1144359, “Synthesis and antitumor activity of the hexacyclic camptothecin derivatives” (Bioorg Med Chem Lett, 2005).
# Legend:
# [1] = Lethal toxicity in mouse with tumor sarcoma-180 after intraperitoneal (i.p.) injection at a dose of 0.5 mg/Kg of total 8 tested; settings: in vivo, ip
# [2] = Lethal toxicity in mouse with tumor sarcoma-180 after intraperitoneal (i.p.) injection at a dose of 1.0 mg/Kg of total 8 tested; settings: in vivo, ip
# [3] = In-vitro inhibitory concentration for human tumor HCT116 cell-line was determined using MTT assay after 3 days of incubation; assay type: functional, cell-based; settings: HCT-116, 72 h
# Mus musculus [4] = experiment: Percent body weight change in mouse with tumor sarcoma-180 after intraperitoneal (i.p.) injection at a dose of 1 mg/Kg; assay type: functional
# Mus musculus [5] = experiment: Average tumor weight in mouse with tumor sarcoma-180 after intraperitoneal (i.p.) injection at a dose of 1 mg/Kg; assay type: functional
# Mus musculus [6] = experiment: Average tumor weight in mouse with tumor sarcoma-180 after intraperitoneal (i.p.) injection at a dose of 0.5 mg/Kg; assay type: functional
# Mus musculus [7] = experiment: Percent body weight change in mouse with tumor sarcoma-180 after intraperitoneal (i.p.) injection at a dose of 0.5 mg/Kg; assay type: functional
# [8] = In-vitro inhibitory concentration for human tumor HELA cell-line was determined using MTT assay after 3 days of incubation; assay type: functional, cell-based; settings: 72 h
# HL-60 = experiment: In-vitro inhibitory concentration for human tumor HL60 cell-line was determined using […] assay after 3 days of incubation; assay type: functional, cell-based; settings: HL-60, 72 h
# Mus musculus [9] = experiment: Percent tumor-weight inhibition in mouse with tumor sarcoma-180 after intraperitoneal (i.p.) injection at a dose of 1 mg/Kg; assay type: functional
# Mus musculus [10] = experiment: Percent tumor-weight inhibition in mouse with tumor sarcoma-180 after intraperitoneal (i.p.) injection at a dose of 0.5 mg/Kg; assay type: functional
# Bel-7402 = experiment: In-vitro inhibitory concentration for human tumor BEL-7402 cell-line was determined using MTT assay after 3 days of incubation; assay type: functional, cell-based; settings: Bel-7402, 72 h
# [11] = Lethal toxicity in mouse with tumor sarcoma-180 after intraperitoneal (i.p.) injection at a dose of 75 mg/Kg of total 10 tested; settings: in vivo, ip
# Mus musculus [12] = experiment: Average tumor weight in mouse with tumor sarcoma-180 after intraperitoneal (i.p.) injection at a dose of 75 mg/Kg; assay type: functional
# Mus musculus [13] = experiment: Percent body weight change in mouse with tumor sarcoma-180 after intraperitoneal (i.p.) injection at a dose of 75 mg/Kg; assay type: functional
# Mus musculus [14] = experiment: Percent tumor-weight inhibition in mouse with tumor sarcoma-180 after intraperitoneal (i.p.) injection at a dose of 75 mg/Kg; assay type: functional
# [15] = Lethal toxicity in mouse with tumor sarcoma-180 after intraperitoneal (i.p.) injection at a dose of 40 mg/Kg of total 8 tested; settings: in vivo, ip
# Mus musculus [16] = experiment: Average tumor weight in mouse with tumor sarcoma-180 after intraperitoneal (i.p.) injection at a dose of 40 mg/Kg; assay type: functional
# Mus musculus [17] = experiment: Percent body weight change in mouse with tumor sarcoma-180 after intraperitoneal (i.p.) injection at a dose of 40 mg/Kg; assay type: functional
# Mus musculus [18] = experiment: Percent tumor-weight inhibition in mouse with tumor sarcoma-180 after intraperitoneal (i.p.) injection at a dose of 40 mg/Kg; assay type: functional
# [19] = Lethal toxicity in mouse with tumor sarcoma-180 after intraperitoneal (i.p.) injection at a dose of 2.5 mg/Kg of total 8 tested; settings: in vivo, ip
# [20] = Lethal toxicity in mouse with tumor sarcoma-180 after intraperitoneal (i.p.) injection at a dose of 5.0 mg/Kg of total 8 tested; settings: in vivo, ip
# Mus musculus [21] = experiment: Percent body weight change in mouse with tumor sarcoma-180 after intraperitoneal (i.p.) injection at a dose of 5 mg/Kg; assay type: functional
# Mus musculus [22] = experiment: Average tumor weight in mouse with tumor sarcoma-180 after intraperitoneal (i.p.) injection at a dose of 5 mg/Kg; assay type: functional
# Mus musculus [23] = experiment: Average tumor weight in mouse with tumor sarcoma-180 after intraperitoneal (i.p.) injection at a dose of 2.5 mg/Kg; assay type: functional
# Mus musculus [24] = experiment: Percent tumor-weight inhibition in mouse with tumor sarcoma-180 after intraperitoneal (i.p.) injection at a dose of 5 mg/Kg; assay type: functional
# Mus musculus [25] = experiment: Percent tumor-weight inhibition in mouse with tumor sarcoma-180 after intraperitoneal (i.p.) injection at a dose of 2.5 mg/Kg; assay type: functional
# Mus musculus [26] = experiment: Percent body weight change in mouse with tumor sarcoma-180 after intraperitoneal (i.p.) injection at a dose of 2.5 mg/Kg; assay type: functional
Compound,IC50 [3],IC50 [8],IC50 (HL-60),IC50 (Bel-7402),further results
CC[C@@]1(O)C(=O)OCc2c1cc1n(c2=O)Cc2cc3c(ccc4occc43)nc2-1,1.6 nM,15 nM,3 nM,1.6 nM,No. of mice dead [1]: 0; No. of mice dead [2]: 0; BWC (Mus musculus [4]): -34%; TW (Mus musculus [5]): 0.03; TW (Mus musculus [6]): 0.23; BWC (Mus musculus [7]): 26%; TWI (Mus musculus [9]): 98%; TWI (Mus musculus [10]): 85%
O=c1[nH]cc(F)c(=O)[nH]1 [FLUOROURACIL],–,–,–,–,No. of mice dead [11]: 0; TW (Mus musculus [12]): 0.22; BWC (Mus musculus [13]): 31%; TWI (Mus musculus [14]): 86%
CC[C@@]1(O)C(=O)OCc2c1cc1n(c2=O)Cc2cc3c4c(ccc3nc2-1)OC(C)C4 (some centres not stated),4.9 nM,10 nM,3.1 nM,7.4 nM,–
CC[C@@]1(O)C(=O)OCc2c1cc1n(c2=O)Cc2cc3c4c(ccc3nc2-1)OC(COC(C)=O)C4 (some centres not stated),4.3 nM,11 nM,11 nM,15 nM,–
CCc1c2c(nc3ccc(O)cc13)-c1cc3c(c(=O)n1C2)COC(=O)[C@]3(O)CC [7-ETHYL-10-HYDROXYCAMPTOTHECIN],3.3 nM,22 nM,19 nM,13 nM,–
CC[C@@]1(O)C(=O)OCc2c1cc1n(c2=O)Cc2cc3c4c(ccc3nc2-1)OC(CO)C4 (some centres not stated),2.6 nM,25 nM,8.7 nM,19 nM,–
CCc1c2c(nc3ccc4c(c13)CC(O)O4)-c1cc3c(c(=O)n1C2)COC(=O)[C@]3(O)CC (some centres not stated),1.4 nM,20 nM,4.2 nM,4.4 nM,–
CCc1c2c(nc3ccc(OC(=O)N4CCC(N5CCCCC5)CC4)cc13)-c1cc3c(c(=O)n1C2)COC(=O)[C@]3(O)CC [IRINOTECAN],–,–,–,–,No. of mice dead [15]: 0; TW (Mus musculus [16]): 0.01; BWC (Mus musculus [17]): -28%; TWI (Mus musculus [18]): 99.4%
CCc1c2c(nc3ccc4occc4c13)-c1cc3c(c(=O)n1C2)COC(=O)[C@]3(O)CC,1.7 nM,2.3 nM,0.28 nM,2.6 nM,–
CCc1c2c(nc3ccc4c(c13)CC(CO)O4)-c1cc3c(c(=O)n1C2)COC(=O)[C@]3(O)CC (some centres not stated),3.8 nM,23 nM,7.1 nM,7.8 nM,–
CCc1c2c(nc3ccc4c(c13)CC(C)O4)-c1cc3c(c(=O)n1C2)COC(=O)[C@]3(O)CC (some centres not stated),2.6 nM,19 nM,4.9 nM,7.5 nM,–
CC[C@@]1(O)C(=O)OCc2c1cc1n(c2=O)Cc2cc3c4c(ccc3nc2-1)OC(O)C4 (some centres not stated),3.2 nM,–,8.4 nM,2.6 nM,No. of mice dead [19]: 0; No. of mice dead [20]: 0; BWC (Mus musculus [21]): -31%; TW (Mus musculus [22]): 0.05; TW (Mus musculus [23]): 0.45; TWI (Mus musculus [24]): 97%; TWI (Mus musculus [25]): 70%; BWC (Mus musculus [26]): 5%
CCc1c2c(nc3ccc4c(c13)CC(COC(C)=O)O4)-c1cc3c(c(=O)n1C2)COC(=O)[C@]3(O)CC (some centres not stated),0.52 nM,14 nM,9.1 nM,11 nM,–
